Usually DC50 stands for the midpoint of the concentration-degradation curve.

The first test concerns the target T1, BRD9 (Homo sapiens, UniProt Q9H8M2).
T1 sequence (Q9H8M2 1-597): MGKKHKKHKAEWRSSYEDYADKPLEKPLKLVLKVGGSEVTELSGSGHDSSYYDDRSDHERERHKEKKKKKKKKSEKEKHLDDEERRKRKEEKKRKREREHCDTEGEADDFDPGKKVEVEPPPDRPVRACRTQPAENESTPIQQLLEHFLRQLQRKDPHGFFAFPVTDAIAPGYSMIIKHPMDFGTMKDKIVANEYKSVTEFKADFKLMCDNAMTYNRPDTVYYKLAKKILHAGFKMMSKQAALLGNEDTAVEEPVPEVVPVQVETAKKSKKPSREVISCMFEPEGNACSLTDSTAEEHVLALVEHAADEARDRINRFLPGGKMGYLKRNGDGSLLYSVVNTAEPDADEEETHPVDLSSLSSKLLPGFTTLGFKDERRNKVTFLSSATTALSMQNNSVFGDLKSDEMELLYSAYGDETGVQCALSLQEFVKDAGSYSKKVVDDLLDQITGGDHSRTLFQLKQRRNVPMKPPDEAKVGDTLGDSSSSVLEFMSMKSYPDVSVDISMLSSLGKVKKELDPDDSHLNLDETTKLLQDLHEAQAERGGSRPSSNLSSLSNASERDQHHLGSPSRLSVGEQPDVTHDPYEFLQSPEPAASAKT
The test is described as follows: HiBiT BRD9 degradation assay in 293T.166 (BRD9-HiBiT) cells. The format is cell-based. More on the design: endogenously expressing BRD9 with HiBiT fusion tag via CRISPR; host or cells: 293T.166 (BRD9-HiBiT), also expressing LgBiT ectopically. Conditions: Table 1; 293T.166 cells, 2.0 hours; class symbols; read-out: HiBiT-Degradation 293T.166 BRD9 2.0 hours (DC50). The gist of the method:
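Luminescence from the Nano-Glo HiBiT lytic reagent quantified BRD9 loss after compounds (top 10 μM, half-log, 11 points, duplicates) were incubated 2 h at 37° C. with 10,000 293T.166 BRD9-HiBiT/LgBiT cells per well, with controls lacking compound or lacking reagent.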
For orientation: HiBiT is a short tag that completes a luciferase, so light tracks the accessible tagged protein.
For the compound `COc1cc(-c2cn(C)c(=O)c3cc(Cl)ccc23)cc(OC)c1CN1CCN(C(=O)CN2CCC(c3ccc(NC4CCC(=O)NC4=O)cc3)CC2)CC1` (centres unmarked) [Compound 29], the DC50 is under 100 nM.

Turning to `COc1cc(-c2cn(C)c(=O)c3[nH]ncc23)cc(OC)c1CNC1CN(CC(=O)N2CCC(c3ccc(NC4CCC(=O)NC4=O)cc3)CC2)C1` (centres unmarked) [Compound 38], the DC50 lay within 100 to 500 nM.

Consider `Cc1c(-c2ccc(CN3CCC(C4CCN(c5ccc(NC6CCC(=O)NC6=O)cc5F)CC4)CC3)nc2)cn(C)c(=O)c1C` (centres unmarked) [Compound 81], for which the DC50 is under 100 nM. Still for that read-out and setting: then `COc1cc(-c2cn(C)c(=O)c3cnccc23)cc(Cl)c1C(=O)N1CCC(CC(=O)N2CCC(c3ccc(NC4CCC(=O)NC4=O)cc3)CC2)CC1` (centres unmarked) [Compound 232, 3-[4-[1-[2-[1-[2-chloro-6-methoxy-4-(2-methyl-1-oxo-2,7-naphthyridin-4-yl)benzoyl]-4-piperidyl]acetyl]-4-piperidyl]anilino]piperidine-2,6-dione], with under 100 nM; and `COc1cc(-c2cn(C)c(=O)c3cnccc23)cc(Cl)c1C(=O)N1CCc2c(CC3CCN(c4ccc(NC5CCC(=O)NC5=O)cc4F)CC3)ccc(F)c2C1` (centres unmarked) [Compound 239, 3-[4-[4-[[2-[2-chloro-6-methoxy-4-(2-methyl-1-oxo-2,7-naphthyridin-4-yl)benzoyl]-8-fluoro-3,4-dihydro-1H-isoquinolin-5-yl]methyl]-1-piperidyl]-3-fluoro-anilino]piperidine-2,6-dione], with under 100 nM.

In the case of `COc1cc(-c2cn(C)c(=O)c3cnccc23)cc(OC)c1CN1CCN(C(=O)CC2CCN(c3ccc(NC4CCC(=O)NC4=O)cc3C(F)(F)F)CC2)CC1` (centres unmarked) [Compound 54], the DC50 was under 100 nM.

With `COc1cc(CN2CCN(C(=O)CN3CCC(c4ccc(NC5CCC(=O)NC5=O)cc4)CC3)CC2)c(OCC(F)F)cc1-c1cn(C)c(=O)c2[nH]ncc12` (centres unmarked) [Compound 25], the DC50 was under 100 nM. As to `COc1cc(-c2cn(C)c(=O)c3[nH]ncc23)cc(OC)c1CN1CCN(C(=O)CN2CC(c3ccc(NC4CCC(=O)NC4=O)cc3)C2)CC1` (centres unmarked) [Compound 32], the DC50 was under 100 nM. On the same count and under the same terms, then `COc1cc(-c2cn(C)c(=O)c3[nH]ncc23)cc(Cl)c1CN1CCC(N(C)C(=O)N2CCC(c3ccc(NC4CCC(=O)NC4=O)cc3)CC2)CC1` (centres unmarked) [Compound 117], with under 100 nM; and `COc1cc(-c2cn(C)c(=O)c3ccccc23)cc(Cl)c1CN1CCC(N2CCN(c3ccc(NC4CCC(=O)NC4=O)cc3F)CC2)C(F)(F)C1` (centres unmarked) [Compound 192], with under 100 nM.

As to `CN(C(=O)N1CCC(c2ccc(NC3CCC(=O)NC3=O)cc2F)CC1)C1CCN(C(=O)c2ccc(-c3cn(C)c(=O)c4cnccc34)cc2OC(F)(F)F)CC1` (centres unmarked) [Compound 138], the DC50 was under 100 nM.

`COc1cc(-c2cn(C)c(=O)c3[nH]ncc23)cc(OC)c1CN1CCN(CC(=O)N2CCC(c3ccc(NC4CCC(=O)NC4=O)cc3)CC2)CC1` (centres unmarked) [Compound 37, 3-[4-[1-[2-[4-[[2,6-dimethoxy-4-(6-methyl-7-oxo-1H-pyrazolo[3,4-c]pyridin-4-yl)phenyl]methyl]piperazin-1-yl]acetyl]-4-piperidyl]anilino]piperidine-2,6-dione]: the DC50 was under 100 nM. On to `COc1cc(-c2cn(C)c(=O)c3[nH]ncc23)cc(OC)c1CN1CCN(C(=O)CN2CCC(c3ccc(NC4CCC(=O)NC4=O)cc3)CC2)CC1` (centres unmarked) [Compound 1, 3-[4-[1-[2-[4-[[2,6-dimethoxy-4-(6-methyl-7-oxo-1H-pyrazolo[3,4-c]pyridin-4-yl)phenyl]methyl]piperazin-1-yl]-2-oxo-ethyl]-4-piperidyl]anilino]piperidine-2,6-dione], for which the DC50 is under 100 nM. For the compound `CC(c1ccc(-c2cn(C)c(=O)c3cc(F)ccc23)cc1OC(F)(F)F)N1CCC(C2CCN(c3ccc(NC4CCC(=O)NC4=O)cc3F)CC2)CC1` (centres unmarked) [Compound 93], the DC50 is under 100 nM.

For the compound `COc1cc(-c2cn(C)c(=O)c3cnccc23)cc(Cl)c1CN1CCC(N2CCN(c3ccc(NC4CCC(=O)NC4=O)cc3F)CC2)C(F)(F)C1` (centres unmarked) [Compound 177, 3-[4-[4-[1-[[2-chloro-6-methoxy-4-(2-methyl-1-oxo-2,7-naphthyridin-4-yl)phenyl]methyl]-3,3-difluoro-4-piperidyl]piperazin-1-yl]-3-fluoro-anilino]piperidine-2,6-dione], the DC50 is under 100 nM. For the compound `COc1cc(-c2cn(C)c(=O)c(C)c2C)cc(OC)c1C=C1CCN(C(=O)CC2CCN(c3ccc(NC4CCC(=O)NC4=O)cc3F)CC2)CC1` (centres unmarked) [Compound 162], the DC50 is under 100 nM. Still for that read-out and setting: to `COc1cc(-c2cn(C)c(=O)c3[nH]ncc23)cc(F)c1CN1CCN(C(=O)CN2CCC(c3ccc(NC4CCC(=O)NC4=O)cc3)C(F)(F)C2)CC1` (centres unmarked) [Compound 33] belongs under 100 nM; to `COc1cc(-c2cn(C)c(=O)c3[nH]ncc23)cc(Cl)c1C(=O)N1CCC(CC(=O)N2CCC(c3ccc(NC4CCC(=O)NC4=O)cc3)CC2)CC1` (centres unmarked) [Compound 233], under 100 nM. As for `COc1cc(-c2cn(C)c(=O)c3[nH]ncc23)cc(Cl)c1CN1CCN(C(=O)CC2CCN(c3ccc(NC4CCC(=O)NC4=O)cc3F)CC2)CC1` (centres unmarked) [Compound 66], the DC50 was under 100 nM. Still for that read-out and setting: to `COc1cc(-c2cn(C)c(=O)c3[nH]ncc23)cc(OC)c1CN1CCN(C(=O)CC2CCN(c3ccc(NC4CCC(=O)NC4=O)cc3C(F)(F)F)CC2)CC12CC2` (centres unmarked) [Compound 58] belongs under 100 nM; to `COc1cc(-c2cn(C)c(=O)c3[nH]ncc23)cc(Cl)c1C(=O)N1CCC(C2CCN(c3ccc(NC4CCC(=O)NC4=O)nc3)CC2)CC1` (centres unmarked) [Compound 222], under 100 nM. Same read-out and setting: to `COc1cc(-c2cn(C)c(=O)c3[nH]ncc23)cc(OC)c1CN1CCC(OC(=O)N2CCC(c3ccc(NC4CCC(=O)NC4=O)cc3)CC2)CC1` (centres unmarked) [Compound 94, [1-[[2,6-dimethoxy-4-(6-methyl-7-oxo-1H-pyrazolo[3,4-c]pyridin-4-yl)phenyl]methyl]-4-piperidyl] 4-[4-[(2,6-dioxo-3-piperidyl)amino]phenyl]piperidine-1-carboxylate] belongs under 100 nM; to `COc1cc(-c2cn(C)c(=O)c(C)c2C)cc(OC)c1CN1C2CCC1CN(C(=O)CC1CCN(c3ccc(NC4CCC(=O)NC4=O)cc3F)CC1)C2` (centres unmarked) [Compound 65], under 100 nM; to `COc1cc(-c2cn(C)c(=O)c3ccccc23)cc(Cl)c1CN1CCC(N2CCC(c3ccc(NC4CCC(=O)NC4=O)cc3F)CC2)C(F)(F)C1` (centres unmarked) [Compound 202], under 100 nM. `COc1cc(-c2cn(C)c(=O)c3cnccc23)cc(F)c1CN1CCC(N2CCN(c3ccc(NC4CCC(=O)NC4=O)cc3F)CC2)C(F)(F)C1` (centres unmarked) [Compound 189]: the DC50 was under 100 nM. The same measure, in the same setting: to `COc1cc(-c2cn(C)c(=O)c3[nH]ncc23)cc(Cl)c1CN1CCC(CC(=O)N2CCC(c3ccc(NC4CCC(=O)NC4=O)cc3)C(F)(F)C2)CC1` (centres unmarked) [Compound 45] belongs under 100 nM; to `COc1cc(-c2cn(C)c(=O)c(C)c2C)cc(OC)c1CN1CCc2c(CC3CCN(c4ccc(NC5CCC(=O)NC5=O)cc4C(F)(F)F)CC3)cccc2C1` (centres unmarked) [Compound 108], under 100 nM.

The test is the same for the next values; noted with them: Table 2; 293T.166 cells, 2.0 hours; class symbols; read-out: HiBiT-Degradation 293T.166 BRD9 2.0 hours (DC50).
Take `COc1cc(-c2cn(C)c(=O)c(C)c2C)cc(Cl)c1CN1CCC(C2CCN(c3ccc(NC4CCC(=O)NC4=O)cc3F)CC2)C(F)(F)C1` (single isomer, unassigned) [Compound 257]: the DC50 is under 100 nM. As for `COc1cc(-c2cn(C)c(=O)c3cnccc23)cc(Cl)c1CN1C2CCC1CN(C(=O)CC1CCN(c3ccc(NC4CCC(=O)NC4=O)cc3F)CC1)C2` (centres unmarked) [Compound 271], the DC50 was under 100 nM.
